In ChEMBL document CHEMBL4219190, “Studies on synthesis of novel pyrido[2,3-d]pyrimidine derivatives, evaluation of their antimicrobial activity and molecular docking” (Bioorg Med Chem Lett, 2018):
Converted amounts (≈) assume the structure as drawn. One block for each molecule: values may come before it. The source made the active and inactive calls. No cut-off for these calls is given here.

Columns and labels:
Candida albicans [1] = assay: Fungicidal activity against Candida albicans MTCC 183 incubated for 24 hrs followed by transfer of microbial suspension to Sabouraud dextrose agar plates and measured after 24 hrs post transfer; type: functional; conditions: MTCC 183, 24 h
Pichia sporocuriosa [2] = assay: Antifungal activity against Issatchenkia hanoiensis MTCC 4755 after 24 hrs by well diffusion method; type: functional; conditions: MTCC 4755, 24 h
Candida albicans [3] = assay: Antifungal activity against Candida albicans MTCC 227 after 24 hrs by well diffusion method; type: functional
Micrococcus luteus [4] = assay: Bactericidal activity against Micrococcus luteus MTCC 2470 incubated for 24 hrs followed by transfer of microbial suspension to Mueller Hinton agar plates and measured after 24 hrs post transfer; type: functional
Candida parapsilosis [5] = assay: Fungicidal activity against Candida parapsilosis MTCC 1744 incubated for 24 hrs followed by transfer of microbial suspension to Sabouraud dextrose agar plates and measured after 24 hrs post transfer; type: functional
Candida albicans [6] = assay: Antifungal activity against Candida albicans MTCC 4748 after 24 hrs by well diffusion method; type: functional
Nakaseomyces glabratus [7] = assay: Antifungal activity against Candida glabrata MTCC 3019 after 24 hrs by well diffusion method; type: functional; conditions: MTCC 3019, 24 h
Candida albicans [8] = assay: Antifungal activity against Candida albicans MTCC 3017 after 24 hrs by well diffusion method; type: functional; conditions: MTCC 3017, 24 h
Staphylococcus aureus [9] = assay: Bactericidal activity against Staphylococcus aureus MLS16 MTCC 2940 incubated for 24 hrs followed by transfer of microbial suspension to Mueller Hinton agar plates and measured after 24 hrs post transfer; type: functional
Staphylococcus aureus [10] = assay: Bactericidal activity against Staphylococcus aureus MTCC 96 incubated for 24 hrs followed by transfer of microbial suspension to Mueller Hinton agar plates and measured after 24 hrs post transfer; type: functional; conditions: MTCC 96, 24 h
Raoultella planticola [11] = assay: Bactericidal activity against Klebsiella planticola MTCC 530 incubated for 24 hrs followed by transfer of microbial suspension to Mueller Hinton agar plates and measured after 24 hrs post transfer; type: functional
[Candida] aaseri [12] = Antifungal activity against Candida aaseri MTCC 1962 after 24 hrs by well diffusion method; type: functional; conditions: Yamadazyma aaseri, MTCC 1962, 24 h
Escherichia coli [13] = assay: Bactericidal activity against Escherichia coli MTCC 739 incubated for 24 hrs followed by transfer of microbial suspension to Mueller Hinton agar plates and measured after 24 hrs post transfer; type: functional
Candida albicans [14] = assay: Antifungal activity against Candida albicans MTCC 1637 after 24 hrs by well diffusion method; type: functional
Candida albicans [15] = assay: Fungicidal activity against Candida albicans MTCC 3017 incubated for 24 hrs followed by transfer of microbial suspension to Sabouraud dextrose agar plates and measured after 24 hrs post transfer; type: functional; conditions: MTCC 3017, 24 h
Nakaseomyces glabratus [16] = assay: Fungicidal activity against Candida glabrata MTCC 3019 incubated for 24 hrs followed by transfer of microbial suspension to Sabouraud dextrose agar plates and measured after 24 hrs post transfer; type: functional; conditions: MTCC 3019, 24 h
Staphylococcus aureus [17] = assay: Antibiofilm activity against Staphylococcus aureus MTCC 96 after 24 hrs by crystal violet staining-based assay; type: functional, organism-based; conditions: Staphylococcus aureus, MTCC 96, 24 h; read-out: IC50
Candida albicans [18] = assay: Fungicidal activity against Candida albicans MTCC 854 incubated for 24 hrs followed by transfer of microbial suspension to Sabouraud dextrose agar plates and measured after 24 hrs post transfer; type: functional
Candida albicans [19] = assay: Antifungal activity against Candida albicans MTCC 183 after 24 hrs by well diffusion method; type: functional; conditions: MTCC 183, 24 h
Candida albicans [20] = assay: Fungicidal activity against Candida albicans MTCC 7315 incubated for 24 hrs followed by transfer of microbial suspension to Sabouraud dextrose agar plates and measured after 24 hrs post transfer; type: functional; conditions: MTCC 7315, 24 h
Candida albicans [21] = assay: Fungicidal activity against Candida albicans MTCC 3958 incubated for 24 hrs followed by transfer of microbial suspension to Sabouraud dextrose agar plates and measured after 24 hrs post transfer; type: functional
Candida albicans [22] = assay: Antifungal activity against Candida albicans MTCC 854 after 24 hrs by well diffusion method; type: functional
Staphylococcus aureus [23] = assay: Antibacterial activity against Staphylococcus aureus MTCC 96 after 24 hrs by well diffusion method; type: functional
Candida albicans [24] = assay: Antifungal activity against Candida albicans MTCC 7315 after 24 hrs by well diffusion method; type: functional; conditions: MTCC 7315, 24 h
Candida albicans [25] = assay: Antifungal activity against Candida albicans MTCC 3958 after 24 hrs by well diffusion method; type: functional
Candida albicans [26] = assay: Fungicidal activity against Candida albicans MTCC 227 incubated for 24 hrs followed by transfer of microbial suspension to Sabouraud dextrose agar plates and measured after 24 hrs post transfer; type: functional
Candida albicans [27] = assay: Fungicidal activity against Candida albicans MTCC 1637 incubated for 24 hrs followed by transfer of microbial suspension to Sabouraud dextrose agar plates and measured after 24 hrs post transfer; type: functional
Pichia kudriavzevii [28] = assay: Fungicidal activity against Candida krusei MTCC 3020 incubated for 24 hrs followed by transfer of microbial suspension to Sabouraud dextrose agar plates and measured after 24 hrs post transfer; type: functional; conditions: MTCC 3020, 24 h
Candida parapsilosis [29] = assay: Antifungal activity against Candida parapsilosis MTCC 1744 after 24 hrs by well diffusion method; type: functional
Escherichia coli [30] = assay: Antibacterial activity against Escherichia coli MTCC 739 after 24 hrs by well diffusion method; type: functional
Pichia kudriavzevii [31] = assay: Antifungal activity against Candida krusei MTCC 3020 after 24 hrs by well diffusion method; type: functional; conditions: MTCC 3020, 24 h
Staphylococcus aureus [32] = assay: Antibacterial activity against Staphylococcus aureus MLS16 MTCC 2940 after 24 hrs by well diffusion method; type: functional
Raoultella planticola [33] = assay: Antibiofilm activity against Klebsiella planticola MTCC 530 after 24 hrs by crystal violet staining-based assay; type: functional, organism-based
Candida albicans [34] = assay: Fungicidal activity against Candida albicans MTCC 4748 incubated for 24 hrs followed by transfer of microbial suspension to Sabouraud dextrose agar plates and measured after 24 hrs post transfer; type: functional
Staphylococcus aureus [35] = assay: Antibiofilm activity against Staphylococcus aureus MLS16 MTCC 2940 after 24 hrs by crystal violet staining-based assay; type: functional, organism-based
Bacillus subtilis [36] = assay: Bactericidal activity against Bacillus subtilis MTCC 121 incubated for 24 hrs followed by transfer of microbial suspension to Mueller Hinton agar plates and measured after 24 hrs post transfer; type: functional
Micrococcus luteus [37] = assay: Antibacterial activity against Micrococcus luteus MTCC 2470 after 24 hrs by well diffusion method; type: functional
Pseudomonas aeruginosa [38] = assay: Antibiofilm activity against Pseudomonas aeruginosa MTCC 2453 after 24 hrs by crystal violet staining-based assay; type: functional, organism-based
Pseudomonas aeruginosa [39] = assay: Bactericidal activity against Pseudomonas aeruginosa MTCC 2453 incubated for 24 hrs followed by transfer of microbial suspension to Mueller Hinton agar plates and measured after 24 hrs post transfer; type: functional
Raoultella planticola [40] = assay: Antibacterial activity against Klebsiella planticola MTCC 530 after 24 hrs by well diffusion method; type: functional
Candida albicans [41] = assay: Fungicidal activity against Candida albicans MTCC 3018 incubated for 24 hrs followed by transfer of microbial suspension to Sabouraud dextrose agar plates and measured after 24 hrs post transfer; type: functional
Bacillus subtilis [42] = assay: Antibacterial activity against Bacillus subtilis MTCC 121 after 24 hrs by well diffusion method; type: functional
Candida albicans [43] = assay: Antifungal activity against Candida albicans MTCC 3018 after 24 hrs by well diffusion method; type: functional
Bacillus subtilis [44] = assay: Antibiofilm activity against Bacillus subtilis MTCC 121 after 24 hrs by crystal violet staining-based assay; type: functional, organism-based
[Candida] aaseri [45] = Fungicidal activity against Candida aaseri MTCC 1962 incubated for 24 hrs followed by transfer of microbial suspension to Sabouraud dextrose agar plates and measured after 24 hrs post transfer; type: functional; conditions: Yamadazyma aaseri, MTCC 1962, 24 h
Pseudomonas aeruginosa [46] = assay: Antibacterial activity against Pseudomonas aeruginosa MTCC 2453 after 24 hrs by well diffusion method; type: functional
Pichia sporocuriosa [47] = assay: Fungicidal activity against Issatchenkia hanoiensis MTCC 4755 incubated for 24 hrs followed by transfer of microbial suspension to Sabouraud dextrose agar plates and measured after 24 hrs post transfer; type: functional; conditions: MTCC 4755, 24 h

MIC (Pichia sporocuriosa [2]): 15.6 µg/mL (≈ 35.6 µM)
MIC (Candida albicans [3]): inactive
MIC (Candida albicans [6]; MTCC 4748, 24 h): 62.5 µg/mL (≈ 143 µM)
MIC (Nakaseomyces glabratus [7]): 15.6 µg/mL (≈ 35.6 µM)
MIC (Candida albicans [8]): 31.2 µg/mL (≈ 71.2 µM)
MIC ([Candida] aaseri [12]): 31.2 µg/mL (≈ 71.2 µM)
MIC (Candida albicans [14]): inactive
IC50 (Staphylococcus aureus [17]): 21.6 µg/mL (≈ 49.3 µM)
MIC (Candida albicans [19]): 31.2 µg/mL (≈ 71.2 µM)
MIC (Candida albicans [22]): inactive
MIC (Staphylococcus aureus [23]; MTCC 96, 24 h): 31.2 µg/mL (≈ 71.2 µM)
MIC (Candida albicans [24]): 31.2 µg/mL (≈ 71.2 µM)
MIC (Candida albicans [25]; MTCC 3958, 24 h): 31.2 µg/mL (≈ 71.2 µM)
MIC (Candida parapsilosis [29]): inactive
MIC (Escherichia coli [30]): inactive
MIC (Pichia kudriavzevii [31]): 31.2 µg/mL (≈ 71.2 µM)
MIC (Staphylococcus aureus [32]): inactive
IC50 (Staphylococcus aureus [35]): Not Active
MIC (Micrococcus luteus [37]): inactive
IC50 (Pseudomonas aeruginosa [38]): Not Active
MIC (Bacillus subtilis [42]): inactive
MIC (Candida albicans [43]; MTCC 3018, 24 h): 15.6 µg/mL (≈ 35.6 µM)
IC50 (Bacillus subtilis [44]): Not Active
MIC (Pseudomonas aeruginosa [46]): inactive
SMILES: O=C(NCCO)c1nc(-c2ccccc2)c2c(C(F)(F)F)cc(-c3ccccc3)nc2n1
MFC (Candida albicans [1]): 62.5 µg/mL (≈ 143 µM)
MBC (Micrococcus luteus [4]): inactive
MFC (Candida parapsilosis [5]): inactive
MBC (Staphylococcus aureus [9]): inactive
MBC (Staphylococcus aureus [10]): 62.4 µg/mL (≈ 142 µM)
MBC (Raoultella planticola [11]): inactive
MBC (Escherichia coli [13]): inactive
MFC (Candida albicans [15]): 62.5 µg/mL (≈ 143 µM)
MFC (Nakaseomyces glabratus [16]): 31.2 µg/mL (≈ 71.2 µM)
MFC (Candida albicans [18]): inactive
MFC (Candida albicans [20]): 62.5 µg/mL (≈ 143 µM)
MFC (Candida albicans [21]; MTCC 3958, 24 h): 62.5 µg/mL (≈ 143 µM)
MFC (Candida albicans [26]): inactive
MFC (Candida albicans [27]): inactive
MFC (Pichia kudriavzevii [28]): 62.5 µg/mL (≈ 143 µM)
IC50 (Raoultella planticola [33]): Not Active
MFC (Candida albicans [34]; MTCC 4748, 24 h): 62.5 µg/mL (≈ 143 µM)
MBC (Bacillus subtilis [36]): inactive
MBC (Pseudomonas aeruginosa [39]): inactive
MIC (Raoultella planticola [40]): inactive
MFC (Candida albicans [41]; MTCC 3018, 24 h): 31.2 µg/mL (≈ 71.2 µM)
MFC ([Candida] aaseri [45]): 31.2 µg/mL (≈ 71.2 µM)
MFC (Pichia sporocuriosa [47]): 15.6 µg/mL (≈ 35.6 µM)

MIC (Pichia sporocuriosa [2]): 31.2 µg/mL (≈ 71.5 µM)
MIC (Candida albicans [3]; MTCC 227, 24 h): 31.2 µg/mL (≈ 71.5 µM)
MIC (Candida albicans [6]): inactive
MIC (Nakaseomyces glabratus [7]): 7.8 µg/mL (≈ 17.9 µM)
MIC (Candida albicans [8]): 15.6 µg/mL (≈ 35.7 µM)
MIC ([Candida] aaseri [12]): 15.6 µg/mL (≈ 35.7 µM)
MIC (Candida albicans [14]): inactive
MIC (Candida albicans [19]): 15.6 µg/mL (≈ 35.7 µM)
MIC (Candida albicans [22]; MTCC 854, 24 h): 31.2 µg/mL (≈ 71.5 µM)
MIC (Staphylococcus aureus [23]): inactive
MIC (Candida albicans [24]): 15.6 µg/mL (≈ 35.7 µM)
MIC (Candida albicans [25]): inactive
MIC (Candida parapsilosis [29]): inactive
MIC (Escherichia coli [30]): inactive
MIC (Pichia kudriavzevii [31]): 15.6 µg/mL (≈ 35.7 µM)
MIC (Staphylococcus aureus [32]): inactive
MIC (Micrococcus luteus [37]): inactive
MIC (Bacillus subtilis [42]): inactive
MIC (Candida albicans [43]): inactive
MIC (Pseudomonas aeruginosa [46]): inactive
SMILES: CCCNC(=O)c1nc(-c2ccccc2)c2c(C(F)(F)F)cc(-c3ccccc3)nc2n1
MFC (Candida albicans [1]): 31.2 µg/mL (≈ 71.5 µM)
MFC (Candida parapsilosis [5]): inactive
MFC (Candida albicans [15]): 15.6 µg/mL (≈ 35.7 µM)
MFC (Nakaseomyces glabratus [16]): 15.6 µg/mL (≈ 35.7 µM)
MFC (Candida albicans [18]; MTCC 854, 24 h): 62.5 µg/mL (≈ 143 µM)
MFC (Candida albicans [20]): 31.2 µg/mL (≈ 71.5 µM)
MFC (Candida albicans [21]): inactive
MFC (Candida albicans [26]; MTCC 227, 24 h): 31.2 µg/mL (≈ 71.5 µM)
MFC (Candida albicans [27]): inactive
MFC (Pichia kudriavzevii [28]): 31.2 µg/mL (≈ 71.5 µM)
MFC (Candida albicans [34]): inactive
MIC (Raoultella planticola [40]): inactive
MFC (Candida albicans [41]): inactive
MFC ([Candida] aaseri [45]): 15.6 µg/mL (≈ 35.7 µM)
MFC (Pichia sporocuriosa [47]): 62.5 µg/mL (≈ 143 µM)
